Read-outs that look alike come from different tables or passages of the source.

Among the data in patent US20240408216A1, “PROTEIN INHIBITOR OR DEGRADING AGENT, PHARMACEUTICAL COMPOSITION CONTAINING SAME AND PHARMACEUTICAL USE” (JING MEDICINE TECHNOLOGY (SHANGHAI) LTD., priority 2021, published 2024) are IC50 values, retold here.

Assay [1] concerns BaF3 (EGFR L858R/T790M/C797S). Put plainly: Cell proliferation IC50 assay (Cell Titer GLO), BaF3 LTC cells. Conditions: Mus musculus, Ba/F3 EGFR, Table 6, 72 h. The format is cell-based. How it is done: (§1) IC50 of compounds in the present invention was determined by Cell Titer GLO reagent from Promega. The procedures are as follows:
(§2) Tumor cells were cultured in specified medium in an incubator at 37° C. and 5% CO2. The cells were passaged periodically. Cells at the logarithmic growth phase were collected for plating at a density of 2000-4000 cells/well. The next day, the compounds of the present invention were serially diluted and added to the cells, with DMSO being the negative control and the culture media without cells being the blank control. The plate was incubated in the incubator for 72 h. The cell viability assay was performed by adding the detection reagents to the cell culture media according to Cell Titer GLO reagent instructions and detecting luminescent signals on an EnVision microplate reader (PerkinElmer).
(§3) Inhibition of cell growth by the compounds of the present invention was plotted by Prism Graphpad software for statistically calculating the IC50 of the compound of the present invention.
On the technique in general: Cellular ATP, detected with luciferase, serves as a proxy for viable cell number.

Assay [2] has as its target T1, BaF3 (EGFR Del19/C797S) (Homo sapiens, UniProt P00533, C797S, cells depend on it, form not given).
T1 construct: BaF3 (EGFR Del19/C797S)|DC|RPMI1640 + 10% FBS
Put plainly: Cell proliferation IC50 assay (Cell Titer GLO), BaF3 DC cells. Type of assay: cell-based, mouse. To be noted: Table 6, 72 h. As to the method:
as §1, §2, §3

Assay [3] relates to BaF3 (EGFR WT). Put plainly: Cell proliferation IC50 assay (Cell Titer GLO), BaF3 WT cells. Type of assay: cell-based. To be noted: Mus musculus, Ba/F3 EGFR, Table 6, 10 ng/ml EGF, 72 h. As to the method: as §1, §2, §3
Assay [4] deals with A431. Put plainly: Cell proliferation IC50 assay (Cell Titer GLO), A431 cells. The format is cell-based. To be noted: Homo sapiens. As to the method:
as §1, §2, §3

Where [5] appears, read: A-431, Table 6, A431, 72 h, read-out: A431 IC50.

T1 sequence (P00533 with tags, fused parts or gaps DEL746-750/C797S, form open): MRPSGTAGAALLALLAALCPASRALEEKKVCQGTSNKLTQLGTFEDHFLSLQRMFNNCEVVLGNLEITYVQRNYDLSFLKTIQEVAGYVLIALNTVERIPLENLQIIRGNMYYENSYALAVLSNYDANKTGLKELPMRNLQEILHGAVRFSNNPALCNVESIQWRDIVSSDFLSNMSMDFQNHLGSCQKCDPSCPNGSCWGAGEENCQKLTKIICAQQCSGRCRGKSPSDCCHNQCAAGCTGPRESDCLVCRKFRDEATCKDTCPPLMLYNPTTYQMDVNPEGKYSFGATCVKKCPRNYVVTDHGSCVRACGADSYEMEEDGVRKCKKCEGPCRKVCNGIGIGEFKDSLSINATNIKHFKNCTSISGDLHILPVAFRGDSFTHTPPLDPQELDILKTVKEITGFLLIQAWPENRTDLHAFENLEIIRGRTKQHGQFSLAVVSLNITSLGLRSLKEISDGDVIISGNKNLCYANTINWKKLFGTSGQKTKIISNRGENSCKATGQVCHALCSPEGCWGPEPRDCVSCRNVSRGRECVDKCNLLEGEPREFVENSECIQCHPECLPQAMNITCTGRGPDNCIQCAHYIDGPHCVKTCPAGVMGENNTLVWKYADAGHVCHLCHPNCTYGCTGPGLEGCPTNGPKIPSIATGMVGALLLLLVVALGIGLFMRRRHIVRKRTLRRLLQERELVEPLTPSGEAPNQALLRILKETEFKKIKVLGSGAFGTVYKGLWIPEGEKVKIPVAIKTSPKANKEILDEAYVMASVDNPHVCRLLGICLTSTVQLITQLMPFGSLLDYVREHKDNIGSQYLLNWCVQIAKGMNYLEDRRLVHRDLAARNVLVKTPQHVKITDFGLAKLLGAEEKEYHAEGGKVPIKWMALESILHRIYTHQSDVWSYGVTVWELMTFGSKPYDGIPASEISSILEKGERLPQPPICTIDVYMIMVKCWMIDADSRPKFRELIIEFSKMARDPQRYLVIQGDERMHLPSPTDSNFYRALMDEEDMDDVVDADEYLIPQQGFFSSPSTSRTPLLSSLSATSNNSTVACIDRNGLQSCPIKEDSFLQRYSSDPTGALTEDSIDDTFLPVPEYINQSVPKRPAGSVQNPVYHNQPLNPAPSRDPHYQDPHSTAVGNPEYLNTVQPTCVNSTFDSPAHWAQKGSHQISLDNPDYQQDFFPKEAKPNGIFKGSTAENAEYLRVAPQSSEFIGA

The IC50 is the concentration that gives 50% inhibition. On to `CCc1cc(Nc2ncc(Cl)c(Nc3ccccc3P(C)(C)=O)n2)c(OC)cc1N1CCC(N2CCN(CCN(C)c3ccc4c(c3)CN(C3CCC(=O)NC3=O)C4=O)CC2)CC1` (stereo not drawn) [Example E223], for which the IC50 in assay [1] is 69.4 nM; in assay [2] it was 11.5 nM; in assay [3], greater than 4000 nM; in assay [4] (A-431, 72 h, read-out: A431 IC50 (nM)) it was greater than 4000 nM.

Take `CCc1cc(Nc2ncc(Cl)c(Nc3ccccc3P(C)(C)=O)n2)c(OC)cc1N1CCC(N2CCN(CCNc3cccc4c3C(=O)N(C3CCC(=O)NC3=O)C4=O)CC2)CC1` (stereo not drawn) [Example E106]: the IC50 in assay [1] is 226 nM; in assay [2], 16.8 nM; in assay [3], greater than 4000 nM; in assay [4] (setting [5]), 1370 nM.

For `COc1cc(N2CCC(N3CCN(CCCCOc4cccc5c4CN(C4CCC(=O)NC4=O)C5=O)CC3)CC2)c(CO)cc1Nc1ncc(Cl)c(Nc2ccccc2P(C)(C)=O)n1` (stereo not drawn) [Example E127], the IC50 was found to be 79.6 nM in assay [1], 8.7 nM in assay [2], 595 nM in assay [3] and 1270 nM in assay [4] (setting [5]).

On to `CCc1cc(Nc2ncc(Cl)c(Nc3ccccc3P(C)(C)=O)n2)c(OC)cc1N1CCC(N2CCN(CCCCCc3cccc4c3CN(C3CCC(=O)NC3=O)C4=O)CC2)CC1` (stereo not drawn) [Example E39], for which the IC50 turned out to be 19.2 nM in assay [1], 4.2 nM in assay [2], 250 nM in assay [3] and 928 nM in assay [4] (setting [5]).

As to `CCc1cc(Nc2ncc(-n3cnc(C)n3)c(Nc3ccccc3P(C)(C)=O)n2)c(OC)cc1N1CCC(N2CCN(CCOc3ccc4c(c3)CN(C3CCC(=O)NC3=O)C4=O)CC2)CC1` (stereo not drawn) [Example E218], the IC50 in assay [1] was greater than 4000 nM; in assay [2] it was 1 nM; in assay [3] it was 2090 nM; in assay [4] (setting [5]) it was greater than 4000 nM.

Take `CCc1cc(Nc2ncc(-c3ccnn3C)c(Nc3ccccc3P(C)(C)=O)n2)c(OC)cc1N1CCC(N2CCN(CCOc3cccc4c3CN(C3CCC(=O)NC3=O)C4=O)CC2)CC1` (stereo not drawn) [Example E176]: the IC50 in assay [1] is greater than 4000 nM; in assay [2] it was 2.4 nM; in assay [3] it was greater than 4000 nM; in assay [4] (setting [5]) it was greater than 4000 nM.

Turning to `CCc1cc(Nc2ncc(Cl)c(Nc3ccccc3P(C)(C)=O)n2)c(OC)cc1N1CCC(N2CCN(CCCCOc3ccc4c(c3F)CN(C3CCC(=O)NC3=O)C4=O)CC2)CC1` (stereo not drawn) [Example E59], the IC50 turned out to be 67.1 nM in assay [1], 22.7 nM in assay [2], 1320 nM in assay [3] and 1440 nM in assay [4] (setting [5]).

As to `CCc1cc(Nc2ncc(Cl)c(Nc3ccccc3P(C)(C)=O)n2)c(OC)cc1N1CCC(N2CCN(CCOc3cccc4c3CN(C3CCC(=O)NC3=O)C4=O)C3(CC3)C2)CC1` (stereo not drawn) [Example E144], the IC50 in assay [1] is 105 nM; in assay [2], 35.2 nM; in assay [3], 1200 nM; in assay [4] (setting [5]), 1370 nM.

With `CCc1cc(Nc2ncc(-c3cnn(C)c3)c(Nc3ccccc3P(C)(C)=O)n2)c(OC)cc1N1CCC(N2CCN(CCOc3cc4c(cc3F)C(=O)N(C3CCC(=O)NC3=O)C4)CC2)CC1` (stereo not drawn) [Example E189], the IC50 in assay [1] was greater than 4000 nM; in assay [2], 0.8 nM; in assay [3], 496 nM; in assay [4] (setting [5]), 1010 nM.

In the case of `CCc1cc(Nc2ncc(Cl)c(Nc3ccccc3P(C)(C)=O)n2)c(OC)cc1N1CCC(N2CCN(CCCc3cccc4c3CN(C3CCC(=O)NC3=O)C4=O)C(=O)C2)CC1` (stereo not drawn) [Example E107], the IC50 in assay [1] was 158 nM; in assay [2], 12.1 nM; in assay [3], greater than 4000 nM; in assay [4] (setting [5]), 1340 nM.

With `CCc1cc(Nc2nc(Nc3ccccc3P(C)(C)=O)c3cn[nH]c3n2)c(OC)cc1N1CCC(N2CCN(CCCCOc3cccc4c3CN(C3CCC(=O)NC3=O)C4=O)CC2)CC1` (stereo not drawn) [Example E161], the IC50 amounted to 135 nM in assay [1], 2 nM in assay [2], 1190 nM in assay [3] and 1290 nM in assay [4] (setting [5]).

Consider `CCc1cc(Nc2ncc(-c3cc[nH]n3)c(Nc3ccccc3P(C)(C)=O)n2)c(OC)cc1N1CCC(N2CCN(CCOc3cccc4c3CN(C3CCC(=O)NC3=O)C4=O)CC2)CC1` (stereo not drawn) [Example E164], for which the IC50 is greater than 4000 nM in assay [1], 7.7 nM in assay [2], greater than 4000 nM in assay [3] and greater than 4000 nM in assay [4] (setting [5]).
